{"source": "ChEMBL document CHEMBL3046572", "about": "“Synthesis and evaluation of antibacterial and antitubercular activities of some novel imidazo[2,1-b][1,3,4]thiadiazole derivatives” (2013)", "assay_type_in_all_cases": "functional", "key": {"[1]": {"test_system": "Mycobacterium tuberculosis", "assay": "Antitubercular activity against Mycobacterium tuberculosis H37Rv assessed as growth inhibition after 5 days by microplate alamar blue assay", "settings": "120 h"}, "[2]": {"test_system": "Vibrio cholerae", "assay": "Antibacterial activity against Vibrio cholerae assessed as growth inhibition after 18 hr by broth microdilution method"}, "[3]": {"test_system": "Staphylococcus aureus", "assay": "Antibacterial activity against Staphylococcus aureus assessed as growth inhibition after 18 hr by broth microdilution method"}, "[4]": {"test_system": "Escherichia coli", "assay": "Antibacterial activity against Escherichia coli assessed as growth inhibition after 18 hr by broth microdilution method"}, "[5]": {"test_system": "Bacillus subtilis", "assay": "Antibacterial activity against Bacillus subtilis assessed as growth inhibition after 18 hr by broth microdilution method"}}, "data": [{"compound": "CCN(CC)c1ccc2cc(-c3nc4sc(S(N)(=O)=O)nn4c3CN3CCCC3)c(=O)oc2c1", "values": [{"measurement": "MIC", "setting": "[1]", "value": 25, "unit": "µg/mL"}, {"measurement": "MIC", "setting": "[2]", "value": 8, "unit": "µg/mL"}, {"measurement": "MIC", "setting": "[3]", "value": 62.5, "unit": "µg/mL"}, {"measurement": "MIC", "setting": "[4]", "value": 8, "unit": "µg/mL"}, {"measurement": "MIC", "setting": "[5]", "value": 62.5, "unit": "µg/mL"}]}, {"compound": "CCN(CC)c1ccc2cc(-c3nc4sc(S(N)(=O)=O)nn4c3SC#N)c(=O)oc2c1", "values": [{"measurement": "MIC", "setting": "[1]", "value": 12.5, "unit": "µg/mL"}, {"measurement": "MIC", "setting": "[2]", "value": 31.2, "unit": "µg/mL"}, {"measurement": "MIC", "setting": "[3]", "value": 62.5, "unit": "µg/mL"}, {"measurement": "MIC", "setting": "[4]", "value": 31.2, "unit": "µg/mL"}, {"measurement": "MIC", "setting": "[5]", "value": 62.5, "unit": "µg/mL"}]}, {"compound": "CCN(CC)c1ccc2cc(-c3nc4sc(S(=O)(=O)/N=C/N(C)C)nn4c3C=O)c(=O)oc2c1", "values": [{"measurement": "MIC", "setting": "[1]", "value": 1.6, "unit": "µg/mL"}, {"measurement": "MIC", "setting": "[2]", "value": 4, "unit": "µg/mL"}, {"measurement": "MIC", "setting": "[3]", "value": 16, "unit": "µg/mL"}, {"measurement": "MIC", "setting": "[4]", "value": 4, "unit": "µg/mL"}, {"measurement": "MIC", "setting": "[5]", "value": 16, "unit": "µg/mL"}]}, {"compound": "CCN(CC)c1ccc2cc(-c3nc4sc(S(=O)(=O)/N=C/N(C)C)nn4c3CO)c(=O)oc2c1", "values": [{"measurement": "MIC", "setting": "[1]", "value": 3.12, "unit": "µg/mL"}, {"measurement": "MIC", "setting": "[2]", "value": 8, "unit": "µg/mL"}, {"measurement": "MIC", "setting": "[3]", "value": 31.2, "unit": "µg/mL"}, {"measurement": "MIC", "setting": "[4]", "value": 8, "unit": "µg/mL"}, {"measurement": "MIC", "setting": "[5]", "value": 31.2, "unit": "µg/mL"}]}, {"compound": "CCN(CC)c1ccc2cc(-c3nc4sc(S(=O)(=O)/N=C/N(C)C)nn4c3/C=N/O)c(=O)oc2c1", "values": [{"measurement": "MIC", "setting": "[1]", "value": 25, "unit": "µg/mL"}, {"measurement": "MIC", "setting": "[2]", "value": 16, "unit": "µg/mL"}, {"measurement": "MIC", "setting": "[3]", "value": 62.5, "unit": "µg/mL"}, {"measurement": "MIC", "setting": "[4]", "value": 16, "unit": "µg/mL"}, {"measurement": "MIC", "setting": "[5]", "value": 62.5, "unit": "µg/mL"}]}, {"compound": "CCN(CC)c1ccc2cc(-c3nc4sc(S(=O)(=O)/N=C/N(C)C)nn4c3C#N)c(=O)oc2c1", "values": [{"measurement": "MIC", "setting": "[1]", "value": 25, "unit": "µg/mL"}, {"measurement": "MIC", "setting": "[2]", "value": 16, "unit": "µg/mL"}, {"measurement": "MIC", "setting": "[3]", "value": 62.5, "unit": "µg/mL"}, {"measurement": "MIC", "setting": "[4]", "value": 16, "unit": "µg/mL"}, {"measurement": "MIC", "setting": "[5]", "value": 62.5, "unit": "µg/mL"}]}, {"compound": "CCN(CC)c1ccc2cc(-c3nc4sc(S(=O)(=O)/N=C/N(C)C)nn4c3C3SCC(=O)N3c3ccccc3)c(=O)oc2c1", "note": "(stereo unspecified)", "values": [{"measurement": "MIC", "setting": "[1]", "value": 0.8, "unit": "µg/mL"}, {"measurement": "MIC", "setting": "[2]", "value": 1, "unit": "µg/mL"}, {"measurement": "MIC", "setting": "[3]", "value": 16, "unit": "µg/mL"}, {"measurement": "MIC", "setting": "[4]", "value": 1, "unit": "µg/mL"}, {"measurement": "MIC", "setting": "[5]", "value": 16, "unit": "µg/mL"}]}, {"compound": "CCN(CC)c1ccc2cc(-c3nc4sc(S(=O)(=O)/N=C/N(C)C)nn4c3/C=N/NC(=N)N)c(=O)oc2c1", "values": [{"measurement": "MIC", "setting": "[1]", "value": 0.8, "unit": "µg/mL"}, {"measurement": "MIC", "setting": "[2]", "value": 1, "unit": "µg/mL"}, {"measurement": "MIC", "setting": "[3]", "value": 16, "unit": "µg/mL"}, {"measurement": "MIC", "setting": "[4]", "value": 1, "unit": "µg/mL"}, {"measurement": "MIC", "setting": "[5]", "value": 16, "unit": "µg/mL"}]}, {"compound": "CCN(CC)c1ccc2cc(-c3cn4nc(S(N)(=O)=O)sc4n3)c(=O)oc2c1", "values": [{"measurement": "MIC", "setting": "[1]", "value": 3.12, "unit": "µg/mL"}, {"measurement": "MIC", "setting": "[2]", "value": 31.2, "unit": "µg/mL"}, {"measurement": "MIC", "setting": "[3]", "value": 62.5, "unit": "µg/mL"}, {"measurement": "MIC", "setting": "[4]", "value": 31.2, "unit": "µg/mL"}, {"measurement": "MIC", "setting": "[5]", "value": 62.5, "unit": "µg/mL"}]}, {"compound": "CCN(CC)c1ccc2cc(-c3nc4sc(S(N)(=O)=O)nn4c3CN3CCOCC3)c(=O)oc2c1", "values": [{"measurement": "MIC", "setting": "[1]", "value": 25, "unit": "µg/mL"}, {"measurement": "MIC", "setting": "[2]", "value": 31.2, "unit": "µg/mL"}, {"measurement": "MIC", "setting": "[3]", "value": 62.5, "unit": "µg/mL"}, {"measurement": "MIC", "setting": "[4]", "value": 31.2, "unit": "µg/mL"}, {"measurement": "MIC", "setting": "[5]", "value": 62.5, "unit": "µg/mL"}]}, {"compound": "CCN(CC)c1ccc2cc(-c3nc4sc(S(N)(=O)=O)nn4c3CN3CCCCC3)c(=O)oc2c1", "values": [{"measurement": "MIC", "setting": "[1]", "value": 25, "unit": "µg/mL"}, {"measurement": "MIC", "setting": "[2]", "value": 31.2, "unit": "µg/mL"}, {"measurement": "MIC", "setting": "[3]", "value": 62.5, "unit": "µg/mL"}, {"measurement": "MIC", "setting": "[4]", "value": 31.2, "unit": "µg/mL"}, {"measurement": "MIC", "setting": "[5]", "value": 62.5, "unit": "µg/mL"}]}, {"compound": "CCN(CC)c1ccc2cc(-c3nc4sc(S(N)(=O)=O)nn4c3Br)c(=O)oc2c1", "values": [{"measurement": "MIC", "setting": "[1]", "value": 6.25, "unit": "µg/mL"}, {"measurement": "MIC", "setting": "[2]", "value": 16, "unit": "µg/mL"}, {"measurement": "MIC", "setting": "[3]", "value": 62.5, "unit": "µg/mL"}, {"measurement": "MIC", "setting": "[4]", "value": 16, "unit": "µg/mL"}, {"measurement": "MIC", "setting": "[5]", "value": 62.5, "unit": "µg/mL"}]}, {"compound": "CCN(CC)c1ccc2cc(-c3nc4sc(S(N)(=O)=O)nn4c3N=O)c(=O)oc2c1", "values": [{"measurement": "MIC", "setting": "[1]", "value": 50, "unit": "µg/mL"}, {"measurement": "MIC", "setting": "[2]", "value": 31.2, "unit": "µg/mL"}, {"measurement": "MIC", "setting": "[3]", "value": 125, "unit": "µg/mL"}, {"measurement": "MIC", "setting": "[4]", "value": 31.2, "unit": "µg/mL"}, {"measurement": "MIC", "setting": "[5]", "value": 125, "unit": "µg/mL"}]}, {"compound": "CCn1cc(C(=O)O)c(=O)c2cc(F)c(N3CCNCC3)cc21", "note": "[NORFLOXACIN]", "values": [{"measurement": "MIC", "setting": "[2]", "value": 1, "unit": "µg/mL"}, {"measurement": "MIC", "setting": "[3]", "value": 2, "unit": "µg/mL"}, {"measurement": "MIC", "setting": "[4]", "value": 16, "unit": "µg/mL"}, {"measurement": "MIC", "setting": "[5]", "value": 2, "unit": "µg/mL"}]}, {"compound": "NC(=O)c1cnccn1", "note": "[PYRAZINAMIDE]", "values": [{"measurement": "MIC", "setting": "[1]", "value": 3.12, "unit": "µg/mL"}]}, {"compound": "CN[C@@H]1[C@H](O[C@H]2[C@H](O[C@H]3[C@H](O)[C@@H](O)[C@H](N=C(N)N)[C@@H](O)[C@@H]3N=C(N)N)O[C@@H](C)[C@]2(O)C=O)O[C@@H](CO)[C@H](O)[C@H]1O", "note": "[STREPTOMYCIN]", "values": [{"measurement": "MIC", "setting": "[1]", "value": 6.25, "unit": "µg/mL"}]}]}
